# Test results from US20130190200A1, “SNP FOR PREDICTING THE SENSITIVITY TO ANTICANCER TARGETED THERAPEUTIC FORMULATION” (Korea Research Institute of Bioscience and Biotechnology, priority 2010, published 2013).
# What was measured:
# [1] = tested on: recurrent and metastatic colorectal cancer patients; assay: Clinical association analysis related to survival on subjects treated with anticancer targeted drugs; type: in vivo, human
# Procedure: (§1) The prediction of clinical outcomes of the corresponding patients was based on the NCCN surveillance guidelines (www.nccn.org), and the determination of chemosensitivity to anticancer drugs were based on the RECIST criteria (Therasse et al., J Natl Cancer Inst 2000; 92:205-16).
# Association analysis was performed on the SNP genotypes sensitive to the individual anticancer drugs obtained in steps (1) and (2) in colorectal cancer patients whose treatment with the corresponding drugs was terminated.
# [2] = tested on: metastatic cancer patients; assay: Clinical association analysis of drug response (RECIST criteria) on subjects treated with anticancer targeted drugs; type: in vivo, human; settings: homozygous substitution alleles of ANXA11 rs1049550 and homozygous or heterozygous substitution alleles of LINS1 rs11247226; P=0.025, 0.019
# From the text: as §1
substance,measurement,setting,value
bevacizumab,"sensitivity and survival, in words (FIG. 2)",[1]; homozygous or heterozygous substitution alleles of ITGA3 rs2230392 vs homozygous reference alleles,greater sensitivity and longer progression-free survival and overall survival
same,mean overall survival (OS),"[1]; patients carrying homozygous or heterozygous substitution alleles of ITGA3 rs2230392, P=0.006 vs homozygous reference",22.5±2.1 months
same,mean progression-free survival (PFS),"[1]; patients carrying homozygous or heterozygous substitution alleles of ITGA3 rs2230392, P=0.018 vs homozygous reference",8.7±0.7 months
same,mean overall survival (OS),"[1]; patients with homozygous reference alleles of ITGA3 rs2230392, P=0.006",13.4±1.9 months
same,mean progression-free survival (PFS),"[1]; patients with homozygous reference alleles of ITGA3 rs2230392, P=0.018",5.7±0.7 months
same,"disease-control response rate, in words",[2],significantly high disease-control response rate
